Measured values reported in US20260042764A1, “COMPOSITIONS AND METHODS FOR INHIBITION OF KRAS” (TheRas, Inc., priority 2022, published 2026).

How the values were obtained:
[1] = target: T1, Avi-KRAS G12R (1-169) GppNHp/RAF1 RBD-3xFLAG (52-151) (Homo sapiens, UniProt P01116, G12R); test: Raf1-KRAS G12R-GppNHP disruption HTRF assay (Biological Example 1); type: binding; details: KRAS G12R, GppNHp-loaded; Table 11
T1 construct: Avi-KRAS G12R (1-169)
Description: (§1) A protein:protein interaction (PPI) Homogeneous Time Resolved Fluorescence (HTRF) assay was used to determine the effectiveness of compounds of the present disclosure in disrupting KRAS protein and effector RAF1 binding.
(§2) The assay buffer included: 50 mM Tris pH 7.5, 100 mM NaCl, 5 mM MgCl2, 0.1% BSA, 0.01% Tween, and 10% DMSO. The bead buffer included: 50 mM Tris pH 7.5, and 0.01% Tween 20. Assay volume of 20 μL was used in a 384 well plate-low volume format.
(§3) The HTRF assay employed the following protocol:
(§4) Protein mix was prepared in assay buffer, and dispensed on plates, 10 μL per well, then incubated for 1 h at room temperature, with 700 rpm shaking, Reagents mix was prepared and dispensed on plates, 10 μL per well, then incubated for 1 h at room temperature, with 700 rpm shaking.
(§5) Data was reported as percentage of activity, with DMSO as 100%. Data was plotted and analyzed using Prism 8.

[2] = test system: GP2d cells (KRAS G12D); test: Cell-based pERK HTRF assay in GP2d cell (Biological Example 2); details: GP2d, GP2d (KRAS G12D) cells, pERK HTRF
Description: A pERK assay (Perkin Elmer) was used to determine the effectiveness of compounds in disrupting KRAS G12D protein/effector signaling in cells.
On Day 1, cells (GP2d) were seeded into 96-well plates at 3×10^4 cells/well in 80 μL complete growth media (DMEM, 10% FBS).
On Day 2, cells were treated with compounds at 0.25% DMSO. The source plate was created with compounds diluted in media at 5-fold the final assay concentration. The compounds were run in a 9-point concentration curve starting at 1 μM or in a 9-point concentration curve starting at 100 nM, with a half-log dilution between concentrations. Twenty μL was transferred onto the cell plates (final volume in wells was 100 μL). Plates were harvested after 60 min incubation by aspirating media and adding kit-supplied 1x supplemented lysis buffer to all wells (50 μL per well). Plates were then placed on a plate shaker and incubated at 850 rpm for an additional 30 min.
Antibody mixture solution was prepared by diluting aliquoted d2 and Eu Cryptate antibodies 1:20 in kit supplied detection buffer, and mixing the diluted antibodies solutions (1:1 v:v).
Samples were homogenized by pipetting up and down and then transferred (16 μL of cell lysates) from the 96-well cell culture plate to two wells of the HTRF 384-well detection plate containing the antibody solution. Plates were centrifuged (524 g for 1 min) and allowed to incubate between 4 and 24 h at room temperature. Maximum signal is reached after 4 h incubation time and remains stable over a period of 24 hours. Therefore, readings can be made between 4 and 24 h of incubation. Plates were centrifuged again (524 g for Imin), then analyzed on the EnVision plate reader using the following settings: Excitation 320 nm, Bandwidth 75 nm; Emission 615 nm, Bandwidth 85 nm; Gain 100%; Flashes 100; Lag 60 μs.

[3] = target: T2, Avi-KRAS G12V (1-169) GppNHp/RAF1 RBD-3xFLAG (52-151) (Homo sapiens, UniProt P01116, G12V); test: Raf1-KRAS G12V-GppNHP disruption HTRF assay (Biological Example 1); type: binding; details: KRAS G12V, GppNHp-loaded; Table 11
T2 construct: Avi-KRAS G12V (1-169)
T2 sequence (P01116 1-169 isoform P01116-2 G12V): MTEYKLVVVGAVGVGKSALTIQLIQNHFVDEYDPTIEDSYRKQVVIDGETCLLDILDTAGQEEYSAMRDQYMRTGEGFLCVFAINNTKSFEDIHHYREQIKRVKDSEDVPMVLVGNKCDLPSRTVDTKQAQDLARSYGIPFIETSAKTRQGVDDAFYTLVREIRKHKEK
Description: as §1, §2, §3, §4, §5

[4] = target: T3, Avi-KRAS WT (1-169) GppNHp/RAF1 RBD-3xFLAG (52-151) (Homo sapiens, UniProt P01116); test: Raf1-KRAS WT-GppNHP disruption HTRF assay (Biological Example 1); type: binding; details: KRAS WT, GppNHp-loaded; Table 11
T3 construct: Avi-KRAS WT (1-169)
T3 sequence (P01116 1-169 isoform P01116-2): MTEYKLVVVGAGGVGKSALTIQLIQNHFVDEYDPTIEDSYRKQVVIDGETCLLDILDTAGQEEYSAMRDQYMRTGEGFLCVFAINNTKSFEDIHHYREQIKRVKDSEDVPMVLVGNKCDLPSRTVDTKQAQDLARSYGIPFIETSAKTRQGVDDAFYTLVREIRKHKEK
Description: as §1, §2, §3, §4, §5

[5] = target: T4, Avi-KRAS G12D (1-169) GppNHp/RAF1 RBD-3xFLAG (52-151) (Homo sapiens, UniProt P01116, G12D); test: Raf1-KRAS G12D-GppNHP disruption HTRF assay (Biological Example 1); type: binding; details: KRAS G12D, GppNHp-loaded; Table 11
T4 construct: Avi-KRAS G12D (1-169)
T4 sequence (P01116 1-169 isoform P01116-2 G12D): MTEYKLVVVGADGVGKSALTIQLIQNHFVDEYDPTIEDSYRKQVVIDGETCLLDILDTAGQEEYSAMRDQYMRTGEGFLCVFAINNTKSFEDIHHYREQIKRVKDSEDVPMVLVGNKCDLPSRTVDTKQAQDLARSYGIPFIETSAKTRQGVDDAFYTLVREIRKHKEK
Description: as §1, §2, §3, §4, §5

T1 sequence (P01116 1-169 isoform P01116-2 G12R): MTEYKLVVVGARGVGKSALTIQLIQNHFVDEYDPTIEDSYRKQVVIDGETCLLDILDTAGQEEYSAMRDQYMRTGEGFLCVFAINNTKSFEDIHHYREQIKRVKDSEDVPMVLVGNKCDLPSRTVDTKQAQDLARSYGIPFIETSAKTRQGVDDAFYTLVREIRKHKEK

| Compound | IC50 [1] [nM] | IC50 [2] [nM] | IC50 [3] [nM] | IC50 [4] [nM] | IC50 [5] [nM] |
| --- | --- | --- | --- | --- | --- |
| CN(c1nc(OC[C@@H]2CC3(CC3)CN2C)nc2c(F)c(-c3ccc(F)c4sc(N)c(C#N)c34)c(C(F)(F)F)cc12)C1CC(O)C1 (stereo partly drawn) [Compound 41] | 100 to 1000 | < 100 | 100 to 1000 | 100 to 1000 | 100 to 1000 |
| CCN(CCO)c1nc(OC[C@@]23CCCN2C[C@H](F)C3)nc2c(F)c(-c3ccc(F)c4sc(N)c(C#N)c34)c(C(F)(F)F)cc12 [Compound 74] | < 100 | < 100 | < 100 | < 100 | < 100 |
| CN(c1nc(OC[C@@]23CCCN2C[C@H](F)C3)nc2c(F)c(-c3ccc(F)c4sc(N)c(C#N)c34)c(C(F)(F)F)cc12)[C@H]1CCOC1 [Compound 133] | 100 to 1000 | < 100 | 100 to 1000 | 100 to 1000 | 100 to 1000 |
| CN(c1nc(OC[C@@]23CCCN2C[C@H](F)C3)nc2c(F)c(-c3ccc(F)c4scc(C#N)c34)c(C(F)(F)F)cc12)[C@@H]1CCN(C(=O)CC#N)C1 [Compound 106] | > 10000 | > 1000 | > 10000 | > 10000 | > 10000 |
| C[C@H](O)CN(C)c1nc(OC[C@@]23CCCN2C[C@H](F)C3)nc2c(F)c(-c3ccc(F)c4sc(N)c(C#N)c34)c(C(F)(F)F)cc12 [Compound 72] | 100 to 1000 | < 100 | 100 to 1000 | 100 to 1000 | < 100 |
| CN(c1nc(OC[C@@]23CCCN2C[C@H](F)C3)nc2c(F)c(-c3ccc(F)c4sc(N)c(C#N)c34)c(C(F)(F)F)cc12)[C@H]1CCC[C@@H]1CO [Compound 86] | 100 to 1000 | < 100 | 1000 to 10000 | 1000 to 10000 | 100 to 1000 |
| C[C@@H]1CN(c2nc(OC[C@@]34CCCN3C[C@H](F)C4)nc3c(F)c(-c4ccc(F)c5sc(N)c(C#N)c45)c(C(F)(F)F)cc23)C[C@H](C)O1 [Compound 143] | 1000 to 10000 | 100 to 1000 | 1000 to 10000 | 100 to 1000 | 100 to 1000 |
| N#Cc1c(N)sc2c(F)ccc(-c3c(C(F)(F)F)cc4c(N5CCC6(CC5)CC(O)C6)nc(OC[C@@]56CCCN5C[C@H](F)C6)nc4c3F)c12 [Compound 45] | 100 to 1000 | 100 to 1000 | 100 to 1000 | 100 to 1000 | 100 to 1000 |
| N#Cc1c(N)sc2c(F)ccc(-c3c(C(F)(F)F)cc4c(N5CC[C@H](O)C5)nc(OC[C@@]56CCCN5C[C@H](F)C6)nc4c3F)c12 [Compound 125] | 100 to 1000 | < 100 | 100 to 1000 | 100 to 1000 | 100 to 1000 |
| CC(=O)NC1CN(c2nc(OC[C@@]34CCCN3C[C@H](F)C4)nc3c(F)c(-c4ccc(F)c5sc(N)c(C#N)c45)c(C(F)(F)F)cc23)C1 [Compound 88] | 100 to 1000 | 100 to 1000 | 100 to 1000 | 100 to 1000 | 100 to 1000 |
| CN(c1nc(OCC23CCCN2CCC3)nc2c(F)c(-c3ccc(F)c4sc(N)c(C#N)c34)c(C(F)(F)F)cc12)[C@H]1C[C@@H](O)C1 [Compound 25] | < 100 | < 100 | < 100 | < 100 | < 100 |
| CC1(CO)CCN(c2nc(OCC34CCCN3CC(F)C4)nc3c(F)c(-c4ccc(F)c5sc(N)c(C#N)c45)c(C(F)(F)F)cc23)CC1 (stereo not drawn) [Compound 48] | 100 to 1000 | < 100 | 100 to 1000 | 100 to 1000 | 100 to 1000 |
